Consider 4 molecules from ChEMBL document CHEMBL3046455, “Synthesis and pharmacological evaluation of some novel 4-isopropyl thiazole-based sulfonyl derivatives as potent antimicrobial and antitubercular agents” (Med Chem Res, 2013).

By MIC is commonly meant the lowest concentration found to suppress growth. Low readings indicate greater potency, high ones weaker potency.

Values after ≈ are worked out from the molar mass of the structure shown.

In data set [1] the test system is A549. Put plainly: Cytotoxicity against Homo sapiens (human) A549 cells at […] by MTT assay relative to control. Format: cell-based.
The test system of data set [2] is Candida tropicalis. Put plainly: Antifungal activity against Candida tropicalis ATCC 1369 after 24 hr by broth microdilution method. Format: functional. Conditions: ATCC 1369, 24 h. (In general: In broth dilution the organism is exposed to a series of concentrations in liquid medium.)
Data set [3] has as its system Staphylococcus aureus. Put plainly: Antibacterial activity against Staphylococcus aureus ATCC 11632 after 24 hr by broth microdilution method. Format: functional. To be noted: ATCC 11632, 24 h.
For data set [4], the system named is Aspergillus niger. Put plainly: Antifungal activity against Aspergillus niger ATCC 6275 after 24 hr by broth microdilution method. Format: functional. Conditions: ATCC 6275, 24 h.
Data set [5] has as its system Escherichia coli. Put plainly: Antibacterial activity against Escherichia coli ATCC 10536 after 24 hr by broth microdilution method. Format: functional. To be noted: ATCC 10536, 24 h.
Data set [6] relates to Saccharomyces cerevisiae. Put plainly: Antifungal activity against Saccharomyces cerevisiae ATCC 9763 after 24 hr by broth microdilution method. Format: functional. To be noted: ATCC 9763, 24 h.
In data set [7] the test system is Bacillus subtilis. Put plainly: Antibacterial activity against Bacillus subtilis ATCC 60511 after 24 hr by broth microdilution method. Format: functional. Conditions: ATCC 60511, 24 h.
Data set [8] relates to Pseudomonas aeruginosa. Put plainly: Antibacterial activity against Pseudomonas aeruginosa ATCC 10145 after 24 hr by broth microdilution method. Format: functional. Conditions: ATCC 10145, 24 h.
Data set [9] deals with Mycobacterium tuberculosis. Put plainly: Antitubercular activity against Mycobacterium tuberculosis H37Rv after 21 days by broth microdilution method. Format: functional. Conditions: 504 h.
Data set [10] has as its system Enterococcus faecalis. Put plainly: Antibacterial activity against Enterococcus faecalis ATCC 14506 after 24 hr by broth microdilution method. Format: functional. To be noted: ATCC 14506, 24 h.
Data set [11] has as its system Klebsiella pneumoniae. Put plainly: Antibacterial activity against Klebsiella pneumoniae ATCC 10031 after 24 hr by broth microdilution method. Format: functional. Conditions: ATCC 10031, 24 h.

Molecule `CC(C)c1csc(-c2nnc(S(=O)(=O)Cc3ccc(C(F)(F)F)cc3)n2/N=C/c2ccc(Cl)cc2)n1` returned an Activity in [1] of 50%. The MIC in [2] was 8 µg/mL (≈ 14.4 µM); in data set [3], 4 µg/mL (≈ 7.22 µM); in data set [4], 4 µg/mL (≈ 7.22 µM); in [5], 8 µg/mL (≈ 14.4 µM); in data set [6] it was 4 µg/mL (≈ 7.22 µM); in [7], 4 µg/mL (≈ 7.22 µM). The MIC came to 4 µg/mL (≈ 7.22 µM) in data set [8], 4 µg/mL (≈ 7.22 µM) in [9], 8 µg/mL (≈ 14.4 µM) in data set [10] and 16 µg/mL (≈ 28.9 µM) in data set [11].
For `CC(C)c1csc(-c2nnc(S(=O)(=O)Cc3ccc(OC(F)(F)F)cc3)n2-c2ccccc2)n1`, in data set [1], the Activity is 50%. The MIC in [2] was determined as 16 µg/mL (≈ 31.5 µM); in [3], 31.2 µg/mL (≈ 61.4 µM); in data set [4], 31.2 µg/mL (≈ 61.4 µM); in data set [5], 2 µg/mL (≈ 3.93 µM); in data set [6] it was 16 µg/mL (≈ 31.5 µM); in [7] it was 8 µg/mL (≈ 15.7 µM). For the same molecule, the MIC turned out to be 8 µg/mL (≈ 15.7 µM) in [8], 1 µg/mL (≈ 1.97 µM) in [9], 8 µg/mL (≈ 15.7 µM) in [10] and 4 µg/mL (≈ 7.87 µM) in data set [11].
As for `CC(C)c1csc(-c2nnc(S(=O)(=O)Cc3ccc(C(F)(F)F)cc3)n2/N=C/c2c(F)cccc2F)n1`, the Activity in [1] amounted to 50%. In addition, the MIC in [2] amounted to 4 µg/mL (≈ 7.2 µM); in [3], 8 µg/mL (≈ 14.4 µM); in data set [4], 8 µg/mL (≈ 14.4 µM); in data set [5], 4 µg/mL (≈ 7.2 µM); in [6] it was 16 µg/mL (≈ 28.8 µM); in data set [7] it was 8 µg/mL (≈ 14.4 µM). Besides, the MIC came to 8 µg/mL (≈ 14.4 µM) in data set [8], 0.5 µg/mL (≈ 0.9 µM) in data set [9], 16 µg/mL (≈ 28.8 µM) in data set [10] and 16 µg/mL (≈ 28.8 µM) in [11].
On to `CC(C)c1csc(-c2nnc(S(=O)(=O)Cc3ccc(C(F)(F)F)cc3)n2/N=C/c2ccc(F)cc2)n1`, for which the Activity entry in [1] was “Toxic”. Moreover, the MIC in [2] was 16 µg/mL (≈ 29.8 µM); in [3] it was 4 µg/mL (≈ 7.44 µM); in data set [4], 4 µg/mL (≈ 7.44 µM); in data set [5], 8 µg/mL (≈ 14.9 µM); in [6], 4 µg/mL (≈ 7.44 µM); in data set [7] it was 8 µg/mL (≈ 14.9 µM). Also, the MIC in data set [8] is 8 µg/mL (≈ 14.9 µM); in data set [9] it was 2 µg/mL (≈ 3.72 µM); in data set [10], 8 µg/mL (≈ 14.9 µM); in [11], 4 µg/mL (≈ 7.44 µM).
